Data set [1] in a line: Probability of Ingredient Color Instability. It counts as physicochemical. Particulars: for Comment Code: Probability of Ingredient Color Instability: codes E/F of the Comment Code, Table 1.
Data set [2] can be described thus: Liquid dish neat product liquid-air partition coefficient. It counts as physicochemical.
Where [3] appears, read: codes K/L of the Comment Code, Table 1.
The mark [4] stands for this setting: class code letter within Comment Code.

Molecules are shown by their SMILES. Like-named read-outs stand apart in the source and are kept apart here.

With `CCCCCC1C(=O)CCC1CC(=O)OC` (centres unmarked) [Material 1083], in data set [1], the “Probability of Ingredient Color Instability (Comment Code E/F)” value (from here on “Probability … (Comment Code E/F)”) is listed as “F (Probability of Ingredient Color Instability<71%)”. The “Log of liquid dish neat product liquid-air partition coefficient (Comment Code K/L)” value (“Log … (Comment Code K/L)” for short) in data set [2] is recorded as “K (Log of liquid dish neat product liquid-air partition coefficient greater than or equal to −7)”.
In the case of `CC1CC(C)(c2ccccc2)OC(C)O1` (centres unmarked) [Material 1126], in data set [1], the “Comment Code: Probability of Ingredient Color Instability” value (shortened to “Comment Code: Probability”) is on record as “F (Probability of Ingredient Color Instability<71%)”. Moreover, the “Comment Code: Log of liquid dish neat product liquid-air partition coefficient” value (shortened to “Comment Code: Log”) in data set [2] (setting [3]) is given as “K (Log of liquid dish neat product liquid-air partition coefficient greater than or equal to −7)”.
With `CC(C)(C=O)CC1=CCC2CC1C2(C)C` (centres unmarked) [Material 925], in data set [1], the “Probability … (Comment Code E/F)” value was “F (Probability of Ingredient Color Instability<71%)”. Moreover, in data set [2], the “Log … (Comment Code K/L)” value is recorded as “K (Log of liquid dish neat product liquid-air partition coefficient greater than or equal to −7)”.
As for `O=C1CCCCCCCCCCC(=O)OCCO1` [Material 485], in data set [1] (setting [4]), the “Probability … (Comment Code E/F)” value is given as “F (Probability of Ingredient Color Instability<71%)”.
On to `Cc1ccc(OC(=O)Cc2ccccc2)cc1` [Material 998], for which the “Probability … (Comment Code E/F)” value in data set [1] is “F (Probability of Ingredient Color Instability<71%)”.
`COC(=O)c1ccccc1NC(O)CC(C)c1ccccc1` (centres unmarked) [Material 1093]: in data set [1], the “Probability … (Comment Code E/F)” value is “F (Probability of Ingredient Color Instability<71%)”.
Turning to `CC(C=O)=CCC1C(C)=CCCC1(C)C` (centres unmarked) [Material 1116], in data set [1], the “Comment Code: Probability” value is “F (Probability of Ingredient Color Instability<71%)”. Further, the “Comment Code: Log” value in data set [2] (setting [3]) was “K (Log of liquid dish neat product liquid-air partition coefficient greater than or equal to −7)”.
`C=CC(C)CC/C=C(\C)CCC=O` (centres unmarked) [Material 358]: the “Probability … (Comment Code E/F)” value in data set [1] (setting [4]) is on record as “F (Probability of Ingredient Color Instability<71%)”. Besides, the “Log … (Comment Code K/L)” value in data set [2] (setting [4]) is “K (Log of liquid dish neat product liquid-air partition coefficient greater than or equal to −7)”.
With `CC=Cc1ccc(OCc2ccccc2)c(OC)c1` [Material 212], the “Probability … (Comment Code E/F)” value in data set [1] (setting [4]) was “F (Probability of Ingredient Color Instability<71%)”.
As for `CCCCCCCCC(C)C=O` (centres unmarked) [Material 92], the “Probability … (Comment Code E/F)” value in data set [1] (setting [4]) is on record as “F (Probability of Ingredient Color Instability<71%)”.
`CC(C)=CCCC(C)=CCOC(=O)Cc1ccccc1` [Material 300]: the “Probability … (Comment Code E/F)” value in data set [1] (setting [4]) is listed as “F (Probability of Ingredient Color Instability<71%)”.
The same measure, in the same setting: under `C/C=C/CCC1CCCC(=O)O1` (centres unmarked) [Material 187] stands “F (Probability of Ingredient Color Instability<71%)”.
On to `COc1c2ccoc2c(OC)c2oc(=O)ccc12` [Material 199], for which the “Probability … (Comment Code E/F)” value in data set [1] (setting [4]) is recorded as “F (Probability of Ingredient Color Instability<71%)”.
The same measure, in the same setting: under `CCCCCCC1CCCC1=O` (centres unmarked) [Material 189] stands “F (Probability of Ingredient Color Instability<71%)”.
Consider `CC1=CCC(C23CCCC(C)(C2)OC3)C1(C)C` (centres unmarked) [Material 571], for which, in data set [1], the “Probability … (Comment Code E/F)” value is listed as “F (Probability of Ingredient Color Instability<71%)”.
Take `CC1(C)C2CC=C(C=O)C1C2` (centres unmarked) [Material 70]: in data set [1] (setting [4]), the “Probability … (Comment Code E/F)” value is “F (Probability of Ingredient Color Instability<71%)”.
As for `CCCCCC1C(=O)CCC1C` (centres unmarked) [Material 1053], the “Probability … (Comment Code E/F)” value in data set [1] was “F (Probability of Ingredient Color Instability<71%)”.
With `C=CC(C)(CCC=C(C)C)OC(=O)c1ccccc1N` (centres unmarked) [Material 153], in data set [1] (setting [4]), the “Probability … (Comment Code E/F)” value was “F (Probability of Ingredient Color Instability<71%)”.
With `COC(=O)c1ccccc1N=CC(C)Cc1ccc(C(C)(C)C)cc1` (centres unmarked) [Material 1121], the “Comment Code: Probability” value in data set [1] was “F (Probability of Ingredient Color Instability<71%)”.
`CC1COC(C)(c2ccc3c(c2)C(C)(C)CCC3(C)C)O1` (centres unmarked) [Material 2]: the “Probability … (Comment Code E/F)” value in data set [1] (setting [4]) is given as “F (Probability of Ingredient Color Instability<71%)”.
On to `CCC(C)CCCC(C)C=O` (centres unmarked) [Material 866], for which the “Probability … (Comment Code E/F)” value in data set [1] was “F (Probability of Ingredient Color Instability<71%)”.
Turning to `CC1(C)C2CC=C(CC=O)C1C2` (centres unmarked) [Material 973], the “Probability … (Comment Code E/F)” value in data set [1] is “F (Probability of Ingredient Color Instability<71%)”.
On to `CCCCCCC1=CCCC1=O` [Material 209], for which the “Probability … (Comment Code E/F)” value in data set [1] (setting [4]) is reported as “F (Probability of Ingredient Color Instability<71%)”.
Still for that read-out and setting: under `CCC(C)(C)C1CCC(=O)CC1` [Material 21] stands “F (Probability of Ingredient Color Instability<71%)”; under `C=CC(C)(O)CCC=C(C)CCC=C(C)CCC=C(C)C` (centres unmarked) [Material 303], “F (Probability of Ingredient Color Instability<71%)”.
With `CCCCCC=C1CCCC1=O` [Material 850], the “Probability … (Comment Code E/F)” value in data set [1] is recorded as “F (Probability of Ingredient Color Instability<71%)”.
Same read-out and setting: the same measure for `CCCCCCCC(C)=O` [Material 840]: “F (Probability of Ingredient Color Instability<71%)”.
Turning to `CC1=CC(C)C(C=O)C(C)C1` (centres unmarked) [Material 218], the “Probability … (Comment Code E/F)” value in data set [1] (setting [4]) was “F (Probability of Ingredient Color Instability<71%)”.
On the same count and under the same terms, the same measure for `O=CC1CCC2C3CCC(C3)C12` (centres unmarked) [Material 130]: “F (Probability of Ingredient Color Instability<71%)”.
Regarding `COc1ccc(COC(=O)Cc2ccccc2)cc1` [Material 663], in data set [1], the “Probability … (Comment Code E/F)” value is on record as “F (Probability of Ingredient Color Instability<71%)”.
Turning to `CC1=CCCC(C)(C)C12CCC(C)O2` (centres unmarked) [Material 1057], the “Probability … (Comment Code E/F)” value in data set [1] is on record as “F (Probability of Ingredient Color Instability<71%)”.
For the compound `CCCCCCCC1CCCC1=O` (centres unmarked) [Material 362], in data set [1] (setting [4]), the “Probability … (Comment Code E/F)” value was “F (Probability of Ingredient Color Instability<71%)”.
Same read-out and setting: under `CCCCCCC(=O)CC` [Material 394] stands “F (Probability of Ingredient Color Instability<71%)”; under `O=C1CCCCCCCCCCCC(=O)OCCO1` [Material 378], “F (Probability of Ingredient Color Instability<71%)”.
As to `CCCCCCCCCC(C)=O` [Material 102], the “Probability … (Comment Code E/F)” value in data set [1] (setting [4]) is given as “F (Probability of Ingredient Color Instability<71%)”.
Take `CCC(=O)OCC(=O)OC(C)C1CCCC(C)(C)C1` (centres unmarked) [Material 1009]: the “Probability … (Comment Code E/F)” value in data set [1] is “F (Probability of Ingredient Color Instability<71%)”.
As for `C=CC(C)(CCC=C(C)C)OC(=O)c1ccccc1` (centres unmarked) [Material 152], in data set [1] (setting [4]), the “Probability … (Comment Code E/F)” value is “F (Probability of Ingredient Color Instability<71%)”.
In the case of `CC(C)C(=O)OCc1ccccc1` [Material 647], in data set [2] (code letters K, L), the “Comment Code: Log” value was “K (Log of liquid dish neat product liquid-air partition coefficient greater than or equal to −7)”.
In the case of `CC(C)=CCCC(C)=CCCC(C)=CCO` [Material 369], the “Log … (Comment Code K/L)” value in data set [2] (setting [4]) is given as “K (Log of liquid dish neat product liquid-air partition coefficient greater than or equal to −7)”.
Take `C=C1C=CC(C(C)CCC=C(C)C)CC1` (centres unmarked) [Material 614]: the “Log … (Comment Code K/L)” value in data set [2] is listed as “K (Log of liquid dish neat product liquid-air partition coefficient greater than or equal to −7)”.
Regarding `CC1=CC2(C=CC(C)O2)C(C(C)C)CC1` (centres unmarked) [Material 68], in data set [2] (setting [4]), the “Log … (Comment Code K/L)” value is given as “K (Log of liquid dish neat product liquid-air partition coefficient greater than or equal to −7)”.
As for `CC(C)Cc1ccc(CC(C)C=O)cc1` (centres unmarked) [Material 1033], the “Log … (Comment Code K/L)” value in data set [2] is given as “K (Log of liquid dish neat product liquid-air partition coefficient greater than or equal to −7)”.
With `CC1CCCCCCCCCCCCC(=O)C1` (centres unmarked) [Material 79], the “Log … (Comment Code K/L)” value in data set [2] (setting [4]) was “K (Log of liquid dish neat product liquid-air partition coefficient greater than or equal to −7)”.
For `CC(C)C(=O)OC1CC2CCC1(C)C2(C)C` (centres unmarked) [Material 603], the “Log … (Comment Code K/L)” value in data set [2] was “K (Log of liquid dish neat product liquid-air partition coefficient greater than or equal to −7)”. Moreover, the “Comment Code: Log” value in data set [2] (code letters K, L) was “K (Log of liquid dish neat product liquid-air partition coefficient greater than or equal to −7)”.
As to `CC(O)CCc1ccccc1` (centres unmarked) [Material 98], the “Log … (Comment Code K/L)” value in data set [2] (setting [4]) is reported as “K (Log of liquid dish neat product liquid-air partition coefficient greater than or equal to −7)”.
`O=C(OC1CCCCC1)c1ccccc1O` [Material 482]: the “Probability … (Comment Code E/F)” value in data set [1] (setting [4]) is on record as “F (Probability of Ingredient Color Instability<71%)”.
Take `C=CCCC(=O)/C=C/C1C(C)=CCCC1(C)C` (centres unmarked) [Material 559]: in data set [2] (setting [4]), the “Log … (Comment Code K/L)” value is “K (Log of liquid dish neat product liquid-air partition coefficient greater than or equal to −7)”.
`C=C(C)C1CCC(C)(O)CC1` (centres unmarked) [Material 612]: the “Log … (Comment Code K/L)” value in data set [2] was “K (Log of liquid dish neat product liquid-air partition coefficient greater than or equal to −7)”.
Take `C=CCOC(=O)CCC1CCCCC1` [Material 746]: the “Log … (Comment Code K/L)” value in data set [2] is on record as “K (Log of liquid dish neat product liquid-air partition coefficient greater than or equal to −7)”.
In the case of `CCC(=O)C=CC1C(C)=CCCC1(C)C` (centres unmarked) [Material 700], the “Log … (Comment Code K/L)” value in data set [2] is given as “K (Log of liquid dish neat product liquid-air partition coefficient greater than or equal to −7)”.
The same measure, in the same setting: the same measure for `CC(=O)C1CC/C(C)=C\CC/C(C)=C\C/C=C/1C` (centres unmarked) [Material 1095]: “K (Log of liquid dish neat product liquid-air partition coefficient greater than or equal to −7)”.
Turning to `O=C1CCCC=CCCCCCCCCCC1` [Material 788], in data set [2], the “Log … (Comment Code K/L)” value is given as “K (Log of liquid dish neat product liquid-air partition coefficient greater than or equal to −7)”. Further, the “Comment Code: Log” value in data set [2] (code letters K, L) is recorded as “K (Log of liquid dish neat product liquid-air partition coefficient greater than or equal to −7)”.

Values taken from patent publication US20160090556A1, “PRODUCTS COMPRISING MALODOR REDUCTION MATERIALS” (The Procter & Gamble Company, priority 2014, published 2016).
